From publication PMC8161398, “Targeting Lactate Dehydrogenase A with Catechin Resensitizes SNU620/5FU Gastric Cancer Cells to 5-Fluorouracil” (International Journal of Molecular Sciences, 2021)

Experiments:
[1] = target: T1, lactate dehydrogenase A (LDHA) (Homo sapiens, UniProt P00338); test: ITC; also purified LDHA activity assay by NADH fluorescence (IC50 =[…]); type: binding
T1 construct: purified recombinant LDHA

[2] = target: T1, lactate dehydrogenase A (LDHA); test: LDHA activity assay (NADH fluorescence), dose-dependent; type: biochemical
[3] = target: T2, lactate dehydrogenase B (LDHB) (Homo sapiens, UniProt P07195); test: LDHB activity assay (NADH fluorescence), dose-dependent; type: biochemical
T2 construct: purified recombinant LDHB
T2 sequence (P07195 2-334): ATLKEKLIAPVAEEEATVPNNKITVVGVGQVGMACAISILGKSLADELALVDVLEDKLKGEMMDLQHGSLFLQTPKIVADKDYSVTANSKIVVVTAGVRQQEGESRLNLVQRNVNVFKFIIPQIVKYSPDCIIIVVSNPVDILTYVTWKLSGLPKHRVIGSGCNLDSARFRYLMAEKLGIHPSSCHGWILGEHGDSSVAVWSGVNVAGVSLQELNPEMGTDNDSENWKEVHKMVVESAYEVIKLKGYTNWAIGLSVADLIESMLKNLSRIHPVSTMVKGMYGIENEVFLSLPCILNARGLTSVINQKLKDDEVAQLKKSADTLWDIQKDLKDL

Row | Compound | Kd [1] | LDHA activity assay (NADH fluorescence), dose-dependent [2] | LDHB activity assay (NADH fluorescence), dose-dependent [3]
1 | Oc1cc(O)c2c(c1)OC(c1ccc(O)c(O)c1)C(O)C2 (stereo not drawn) [CA, Catechin] | 197 µM | – | –
2 | O=C(O[C@@H]1Cc2c(O)cc(O)cc2O[C@@H]1c1cc(O)c(O)c(O)c1)c1cc(O)c(O)c(O)c1 [EGCG, epigallocatechin-3-gallate] | – | LDHA and LDHB activities were measured with EGCG, which is known to inhibit LDHA activity | exert inhibitory effects on both LDHA and LDHB activities
